Reference: patent US20240300976A1, “COMPOUNDS AS MODULATORS OF ENDOPLASMIC RETICULUM AMINOPEPTIDASE 1 (ERAP1)” (GREY WOLF THERAPEUTICS LIMITED, priority 2020, published 2024)

These compounds were tested against T1, ERAP1 (Homo sapiens, UniProt Q9NZ08) (assay: ERAP1 mediated hydrolysis of an amide substrate (10-mer inhibition assay), biochemical system). Conditions: 10-mer substrate, incubated at 23° C. for 1 h, excitation 279 nm and emission 355 nm; read-out: IC50 vs Decapeptide WRVYEKC(Dnp)ALK-acid (where Dnp is Dinitrophenyl maleimide) (10-mer).
T1 construct: Purified ERAP1(37-941)-10His (ERAP1); 10His (C)
Source text: This peptide has minimal fluorescence as the N-terminal tryptophan residue's fluorescence is quenched by the dinitrophenol (DNP) residue within the peptide. However, as ERAP1 hydrolyses the N-terminal amide bond and tryptophan is released this internal quenching is lost and the reaction is monitored by the increase in tryptophan fluorescence over the course of the assay. For the purposes of this application this assay is referred to as the “1 Omer inhibition assay” and compound potencies are calculated and expressed as 1050 as would be familiar to a person skilled in the art.
Biological Assay 1: ERAP1 Mediated Hydrolysis of an Amide Substrate Measured in a Biochemical System
• 1× Assay buffer (AB): 25 mM Bis-tris propane, 0.05% w/v Hydroxypropylmethylcellulose pH 7.75 made with Optima grade water • Decapeptide WRVYEKC(Dnp)ALK-acid (where Dnp is Dinitrophenyl maleimide) (10-mer) • L-Leucine 7-amido-4-methylcoumarin (L-AMC) • Purified ERAP1(37-941)-10His (ERAP1)
12.5 μL ERAP1 enzyme in 1×AB was combined with 250 nL test compound in DMSO. 12.5 μL of either 240 μM L-AMC in 1×AB or 100 μM 10-mer in 1×AB was added to the reaction and incubated at 23° C. for 1 h. For detection, plates were read at excitation 365 nm and emission 442 nm (L-AMC) or excitation 279 nm and emission 355 nm (10-mer). Compound IC50 was determined using a 4-parameter equation.

T1 sequence (Q9NZ08 37-941): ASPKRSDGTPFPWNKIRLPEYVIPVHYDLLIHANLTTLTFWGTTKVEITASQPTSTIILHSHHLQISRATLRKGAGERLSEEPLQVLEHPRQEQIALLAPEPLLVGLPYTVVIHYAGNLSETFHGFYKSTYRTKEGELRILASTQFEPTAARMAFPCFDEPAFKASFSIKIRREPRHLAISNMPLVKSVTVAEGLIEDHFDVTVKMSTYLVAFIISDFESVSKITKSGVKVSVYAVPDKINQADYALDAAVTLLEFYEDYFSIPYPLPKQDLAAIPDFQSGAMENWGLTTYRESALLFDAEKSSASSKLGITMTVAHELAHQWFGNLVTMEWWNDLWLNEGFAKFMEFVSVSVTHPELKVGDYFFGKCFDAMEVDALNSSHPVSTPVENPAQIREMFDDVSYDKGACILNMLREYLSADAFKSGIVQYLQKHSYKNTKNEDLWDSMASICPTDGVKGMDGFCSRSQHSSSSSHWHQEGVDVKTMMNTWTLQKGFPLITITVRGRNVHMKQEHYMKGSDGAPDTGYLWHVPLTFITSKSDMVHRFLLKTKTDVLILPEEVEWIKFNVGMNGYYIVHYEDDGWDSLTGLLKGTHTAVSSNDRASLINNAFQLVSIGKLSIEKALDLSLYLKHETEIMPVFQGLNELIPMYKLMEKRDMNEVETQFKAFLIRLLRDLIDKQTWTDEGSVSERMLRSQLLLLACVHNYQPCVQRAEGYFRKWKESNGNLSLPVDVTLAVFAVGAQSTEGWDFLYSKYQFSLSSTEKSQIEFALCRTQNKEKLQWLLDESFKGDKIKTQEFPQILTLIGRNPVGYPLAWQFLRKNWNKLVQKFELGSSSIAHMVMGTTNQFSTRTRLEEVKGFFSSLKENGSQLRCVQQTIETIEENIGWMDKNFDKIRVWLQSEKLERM

Row | Compound | IC50 [µM]
1 | 3-chloro-2-(1H-tetrazol-1-yl)-7,8,9,9a,10,11,12,13-octahydro-6H, 20H-dibenzo[b,f]pyrido[1,2-h][1]oxa[4]thia[5,8]diazacyclotridecine-17-carboxylic acid 19,19-dioxide [Example 54] | < 0.25
2 | O=C(O)c1ccc2c(c1)S(=O)(=O)Nc1cc(C(F)(F)F)ccc1N1CCCCC1C/C=C/CO2 (racemic) [Example 1, (E)-2-(trifluoromethyl)-7,8,9,9a,10,13-hexahydro-6H, 20H-dibenzo[b,f]pyrido[1,2-h][1]oxa[4]thia[5,8]diazacyclotridecine-17-carboxylic acid 19,19-dioxide] | < 0.25
3 | N#Cc1ccc2c(c1)NS(=O)(=O)c1cc(C(=O)O)ccc1OCCC1CCCCN21 (racemic) [Example 2, 2-cyano-7,8,9,9a,10,11-hexahydro-6H, 18H-dibenzo[b,f]pyrido[1,2-h][1]oxa[4]thia[5,8]diazacycloundecine-15-carboxylic acid 17,17-dioxide] | > 1
4 | N#Cc1ccc2c(c1)NS(=O)(=O)c1cc(C(=O)O)ccc1OCC1CCCCN21 (racemic) [Example 3, 8-cyano-12,13,14,15,15a,16-hexahydro-6H-dibenzo[b,f]pyrido[1,2 h][1,4,5,8]oxathiadiazecine-3-carboxylic acid 5,5-dioxide] | < 0.25
5 | N#Cc1ccc2c(c1)NS(=O)(=O)c1cc(C(=O)O)ccc1OCCCCC1CCCCN21 (racemic) [Example 4, 2-cyano-7,8,9,9a,10,11,12,13-octahydro-6H,20H-dibenzo[b,f]pyrido[1,2-h][1]oxa[4]thia[5,8]diazacyclotridecine-17-carboxylic acid 19,19-dioxide] | < 0.25
6 | N#Cc1ccc2c(c1)NS(=O)(=O)c1cc(C(=O)O)ccc1OC/C=C/CC1CCCCN21 (racemic) [Example 15, (E)-2-cyano-7,8,9,9a,10,13-hexahydro-6H, 20H-dibenzo[b,f]pyrido[1,2-h][1]oxa[4]thia[5,8]diazacyclotridecine-17-carboxylic acid 19,19-dioxide] | < 0.25
7 | CS(=O)(=O)c1ccc2c(c1)NS(=O)(=O)c1cc(C(=O)O)ccc1OCC1CCCCN21 (racemic) [Example 18, 8-(methylsulfonyl)-12,13,14,15,15a,16-hexahydro-6H-dibenzo[b,f]pyrido[1,2-h][1,4,5,8]oxathiadiazecine-3-carboxylic acid 5,5-dioxide] | 0.25 to 1
8 | CS(=O)(=O)c1ccc2c(c1)NS(=O)(=O)c1cc(C(=O)O)ccc1OCCCCC1CCCCN21 (racemic) [Example 23, 2-(methylsulfonyl)-7,8,9,9a,10,11,12,13-octahydro-6H, 20H-dibenzo[b,f]pyrido[1,2-h][1]oxa[4]thia[5,8]diazacyclotridecine-17-carboxylic acid 19,19-dioxide] | 0.25 to 1
9 | CS(=O)(=O)c1cc2c(cc1F)N1CCCCC1COc1ccc(C(=O)O)cc1S(=O)(=O)N2 (racemic) [Example 25, 9-fluoro-8-(methylsulfonyl)-12,13,14,15,15a,16-hexahydro-6H-dibenzo[b,f]pyrido[1,2-h][1,4,5,8]oxathiadiazecine-3-carboxylic acid 5,5-dioxide] | < 0.25
10 | N#Cc1cc2c(cc1F)N1CCCCC1CCCCOc1ccc(C(=O)O)cc1S(=O)(=O)N2 (racemic) [Example 28, 2-cyano-3-fluoro-7,8,9,9a,10,11,12,13-octahydro-6H,20H-dibenzo[b,f]pyrido[1,2-h][1]oxa[4]thia[5,8]diazacyclotridecine-17-carboxylic acid 19,19-dioxide] | < 0.25
11 | N#Cc1cc2c(cc1F)N1CCCCC1CCCOc1ccc(C(=O)O)cc1S(=O)(=O)N2 (racemic) [Example 29, 2-cyano-3-fluoro-6,7,8,9,9a,10,11,12-octahydro-19H-dibenzo[b,f]pyrido[1,2-h][1]oxa[4]thia[5,8]diazacyclododecine-16-carboxylic acid 18,18-dioxide] | < 0.25
12 | CS(=O)(=O)c1cc2c(cc1F)N1CCCCC1CCCCOc1ccc(C(=O)O)cc1S(=O)(=O)N2 (racemic) [Example 31, 3-fluoro-2-(methylsulfonyl)-7,8,9,9a,10,11,12,13-octahydro-6H, 20H-dibenzo[b,f]pyrido[1,2-h][1]oxa[4]thia[5,8]diazacyclotridecine-17-carboxylic acid 19,19-dioxide] | < 0.25
13 | CN1c2cc(S(C)(=O)=O)ccc2N2CCCCC2CCCOc2ccc(C(=O)O)cc2S1(=O)=O (racemic) [Example 34, 19-methyl-2-(methylsulfonyl)-6,7,8,9,9a,10,11,12-octahydro-19H-dibenzo[b,f]pyrido[1,2-h][1]oxa[4]thia[5,8]diazacyclododecine-16-carboxylic acid 18,18-dioxide] | < 0.25
14 | CS(=O)(=O)c1ccc2c(c1)NS(=O)(=O)c1cc(C(=O)O)ccc1OCCCC1CCCCN21 (racemic) [Example 36, 2-(methylsulfonyl)-6,7,8,9,9a,10,11,12-octahydro-19H-dibenzo[b,f]pyrido[1,2-h][1]oxa[4]thia[5,8]diazacyclododecine-16-carboxylic acid 18,18-dioxide] | < 0.25

Second part, the compound after the results:

Row | IC50 [µM] | Compound
15 | < 0.25 | N#Cc1cc2c(cc1Cl)N1CCCCC1COc1ccc(C(=O)O)cc1S(=O)(=O)N2 (racemic) [Example 14, 9-chloro-8-cyano-12,13,14,15,15a,16-hexahydro-6H-dibenzo[b,f]pyrido[1,2-h][1,4,5,8]oxathiadiazecine-3-carboxylic acid 5,5-dioxide]
16 | < 0.25 | N#Cc1cc2c(cc1Cl)N1CCCCC1CCCOc1ccc(C(=O)O)cc1S(=O)(=O)N2 (racemic) [Example 21, 3-chloro-2-cyano-6,7,8,9,9a,10,11,12-octahydro-19H-dibenzo[b,f]pyrido[1,2-h][1]oxa[4]thia[5,8]diazacyclododecine-16-carboxylic acid 18,18-dioxide]
17 | < 0.25 | N#Cc1cc2c(cc1Cl)N1CCCCC1CCCCOc1ccc(C(=O)O)cc1S(=O)(=O)N2 (racemic) [Example 22, 3-chloro-2-cyano-7,8,9,9a,10,11,12,13-octahydro-6H, 20H-dibenzo[b,f]pyrido[1,2-h][1]oxa[4]thia[5,8]diazacyclotridecine-17-carboxylic acid 19,19-dioxide]
18 | < 0.25 | N#Cc1cc2c(cc1F)N1CCCCC1COc1ccc(C(=O)O)cc1S(=O)(=O)N2 (racemic) [Example 24, 8-cyano-9-fluoro-12,13,14,15,15a,16-hexahydro-6H-dibenzo[b,f]pyrido[1,2-h][1,4,5,8]oxathiadiazecine-3-carboxylic acid 5,5-dioxide]
19 | < 0.25 | N#Cc1cc2c(cc1Cl)N1CCCCC1C/C=C/COc1ccc(C(=O)O)cc1S(=O)(=O)N2 (racemic) [Example 30, (E)-3-chloro-2-cyano-7,8,9,9a,10,13-hexa hydro-6H, 20H-dibenzo[b,f]pyrido[1,2-h][1]oxa[4]thia[5,8]diazacyclotridecine-17-carboxylic acid 19,19-dioxide]
20 | < 0.25 | N#Cc1cc2c(cc1Cl)N1CCCCC1/C=C/COc1ccc(C(=O)O)cc1S(=O)(=O)N2 (racemic) [Example 35, (E)-3-chloro-2-cyano-6,7,8,9,9a,12-hexahydro-19H-dibenzo[b,f]pyrido[1,2-h][1]oxa[4]thia[5,8]diazacyclododecine-16-carboxylic acid 18,18-dioxide]
